Test system: Caco-2 cells
Experiment: Trans-epithelial electrical resistance (TEER) across Caco-2 cell monolayer
Type: cell-based, human
Conditions: Caco-2 monolayer; for TEER 15 minutes after addition: fall >50% of initial value considered significant; for TEER before addition: four replicates
Procedure: Caco-2 cells (a cell line derived from human colon adenocarcinoma) are grown as a confluent mono-layer on the surface of a porous membrane (pore size 0.4 μm, surface area 0.33 cm^2) separating two aqueous compartments, the upper compartment filled with 200 μl of culture medium, and the lower compartment containing 600 μl of the culture medium. Electrical resistance across the mono-layer is measured using an epithelial voltohmeter connected to electrodes inserted into the medium on either side of the mono-layer in the upper and lower compartments. This trans-epithelial electrical resistance (TEER) is measured immediately before, and fifteen minutes after the addition of aromatic alcohols to the upper compartment (typical results are given in the table below). Fall in TEER is considered indicative of the increased flow of materials (including bulk fluid phase) across the cell monolayer. Falls of greater than 50% of the initial value are considered significant. Reducing the concentration tends to reduce the effect observed.

[1] = agent 0.3 mg/ml in upper compartment
[2] = baseline immediately before addition of agent at 0.3 mg/ml

Row | SMILES | TEER 15 minutes after addition [1] [ohm · cm^2] | TEER before addition [2] [ohm · cm^2] | TEER 15 minutes after addition (agent 0.2 mg/ml in upper compartment) [ohm · cm^2] | TEER 15 minutes after addition (agent 13 mg/ml in upper compartment) [ohm · cm^2] | TEER before addition (baseline immediately before addition of agent at 0.2 mg/ml) [ohm · cm^2] | TEER before addition (baseline immediately before addition of agent at 13 mg/ml) [ohm · cm^2]
1 | COc1ccc(O)c(C(C)(C)C)c1 [Butylated hydroxy anisole, butylated hydroxy anisole] | 183 | 564 |  |  |  | 
2 | Cc1cc(C(C)(C)C)c(O)c(C(C)(C)C)c1 [Butylated hydroxy toluene, butylated hydroxy toluene] | 194 | 633 |  |  |  | 
3 | CCCOC(=O)c1cc(O)c(O)c(O)c1 [Propyl gallate, propyl gallate] |  |  | 629 | −0.6 | 667 | 494
